Experimental data as given in publication PMC10216335, “Voltage-Gated Sodium Channel NaV1.7 Inhibitors with Potent Anticancer Activities in Medullary Thyroid Cancer Cells” (Cancers, 2023).
Structures can show the parent of a compound that is named as a salt.

Molecular target: T1, NaV1.7 (Rattus norvegicus, UniProt O08562)
T1 construct: gene Scn9a; rat cDNA NaV1.7 (GenBank No. U79568), transiently expressed in HEK-293 cells
Test: whole-cell patch-clamp, INa block in transfected HEK-293 cells
Assay type: cell-based

T1 sequence (O08562 whole entry): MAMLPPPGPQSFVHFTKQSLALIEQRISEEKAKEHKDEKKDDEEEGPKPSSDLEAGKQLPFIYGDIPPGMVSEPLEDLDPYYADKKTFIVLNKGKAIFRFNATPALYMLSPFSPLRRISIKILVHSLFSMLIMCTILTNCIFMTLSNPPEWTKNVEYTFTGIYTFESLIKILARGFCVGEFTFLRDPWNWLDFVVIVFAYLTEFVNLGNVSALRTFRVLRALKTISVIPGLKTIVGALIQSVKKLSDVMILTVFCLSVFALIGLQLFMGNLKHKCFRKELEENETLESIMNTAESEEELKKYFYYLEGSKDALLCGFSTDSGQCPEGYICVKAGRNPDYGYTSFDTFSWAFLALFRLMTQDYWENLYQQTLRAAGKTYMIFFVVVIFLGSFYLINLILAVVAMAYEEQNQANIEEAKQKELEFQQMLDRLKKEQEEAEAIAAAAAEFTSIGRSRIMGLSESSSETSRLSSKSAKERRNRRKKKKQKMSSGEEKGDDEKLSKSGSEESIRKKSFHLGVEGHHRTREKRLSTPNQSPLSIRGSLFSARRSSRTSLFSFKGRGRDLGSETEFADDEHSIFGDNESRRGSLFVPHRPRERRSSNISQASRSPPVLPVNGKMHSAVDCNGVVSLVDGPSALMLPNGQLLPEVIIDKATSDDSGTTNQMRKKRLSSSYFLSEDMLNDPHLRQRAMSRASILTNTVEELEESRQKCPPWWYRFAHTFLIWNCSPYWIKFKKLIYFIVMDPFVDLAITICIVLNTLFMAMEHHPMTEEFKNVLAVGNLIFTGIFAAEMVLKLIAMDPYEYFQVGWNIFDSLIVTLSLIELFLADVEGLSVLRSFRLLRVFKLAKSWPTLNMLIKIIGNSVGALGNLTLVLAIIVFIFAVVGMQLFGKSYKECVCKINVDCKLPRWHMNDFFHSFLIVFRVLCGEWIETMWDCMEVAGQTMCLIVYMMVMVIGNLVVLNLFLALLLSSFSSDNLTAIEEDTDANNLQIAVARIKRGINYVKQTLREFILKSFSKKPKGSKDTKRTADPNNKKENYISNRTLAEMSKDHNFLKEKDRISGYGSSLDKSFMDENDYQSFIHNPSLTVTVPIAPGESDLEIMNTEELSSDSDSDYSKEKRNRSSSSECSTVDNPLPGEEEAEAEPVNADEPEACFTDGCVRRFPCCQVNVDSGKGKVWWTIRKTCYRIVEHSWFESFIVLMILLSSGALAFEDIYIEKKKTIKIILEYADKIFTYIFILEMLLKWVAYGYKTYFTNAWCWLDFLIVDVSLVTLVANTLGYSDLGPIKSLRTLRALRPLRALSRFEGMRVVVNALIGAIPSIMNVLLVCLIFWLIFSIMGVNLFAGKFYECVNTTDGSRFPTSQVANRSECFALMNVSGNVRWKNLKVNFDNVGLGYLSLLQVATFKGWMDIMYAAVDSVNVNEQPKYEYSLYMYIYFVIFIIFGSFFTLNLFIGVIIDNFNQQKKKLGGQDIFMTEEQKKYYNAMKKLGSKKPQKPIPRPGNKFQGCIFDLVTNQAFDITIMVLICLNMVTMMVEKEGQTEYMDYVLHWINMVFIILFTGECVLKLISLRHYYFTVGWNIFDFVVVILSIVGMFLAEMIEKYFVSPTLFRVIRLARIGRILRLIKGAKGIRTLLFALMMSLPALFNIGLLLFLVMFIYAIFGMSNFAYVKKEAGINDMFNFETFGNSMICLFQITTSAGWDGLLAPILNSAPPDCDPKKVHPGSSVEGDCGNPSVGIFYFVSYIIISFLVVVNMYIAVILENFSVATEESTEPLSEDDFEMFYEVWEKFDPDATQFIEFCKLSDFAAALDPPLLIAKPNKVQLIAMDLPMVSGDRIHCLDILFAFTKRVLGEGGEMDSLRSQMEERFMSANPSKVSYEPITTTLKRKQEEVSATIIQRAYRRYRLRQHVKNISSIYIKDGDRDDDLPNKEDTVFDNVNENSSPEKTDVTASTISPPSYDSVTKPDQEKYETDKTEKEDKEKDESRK

IC50: 3.6 µM
Compound: c1ccc(C(CCCNCCCN2CCCCC2)c2ccccc2)cc1 [SV188, 4,4-Diphenylbutyl [3-(piperidin-1-yl)propyl]amine Hydrochloride]
